Read-outs that look alike come from different tables or passages of the source.
Assays:
Type in all cases: cell-based
[1] = tested on: human coronavirus HCoV-229E; design: unit not given here; details: MRC-5 cells, qPCR
[2] = tested on: human coronavirus OC43 (ATCC VR1588); assay: Pharmacological Test 2: OC43 infection of HCT-8 host cells, virus RNA quantified by RT-qPCR; design: unit not given here; details: HCT-8 cells
Text: Compound X described above was used as the test compound. […] Comparative Compound 2 used herein was chloroquine phosphate, which has temporarily been approved by the US Food and Drug Administration (FDA) for emergency use in patients with new coronavirus infection.

[3] = tested on: SARS-CoV-2 (hCoV-19/Germany/BY-ChVir-929/2020); assay: Pharmacological Test 3: SARS-CoV-2 infection of Vero E6 host cells, virus amount in culture supernatant by qPCR (Ct value); details: for Ct value (average value): Vero E6 cells, SARS-CoV-2, culture supernatant
Procedure: Compound X described above was used as the test compound. Vero E6 (ATCC CRL1586) was used as a host cell, and this was cultured on a 96-well plate until a monolayer sheet was obtained. Next, the medium was removed, 50 μL of a mixed suspension medium of SARS-CoV-2 (hCoV-19/Germany/BY-ChVir-929/2020) and a predetermined dose of the test compound was added, and the resultant was allowed to stand at 37° C. for 1 hour. The virus concentration was 150 PFU/well. Subsequently, the medium was removed, and the cells were washed with PBS. Then, a new medium mixed with the same dose of the test compound as before was added, and the cells were cultured at 37° C. overnight. After culturing, the virus amount in the culture supernatant was quantified by qPCR. As the primers and probe, the new coronavirus N1 protein-specific primers and probe specified by the Centers for Disease Control and Prevention (CDC) were used, and the conditions were also in accordance with the conditions specified by the CDC. The number of PCR cycles (Ct value) until the signal intensity of the PCR product reached a predetermined intensity (threshold value) was determined.

Compound	Virus amount ([1]; 0.78 μM test substance)	Virus amount ([1]; 1.58 μM test substance)	Virus amount ([1]; 3.1 μM test substance)	Virus amount ([1]; 6.3 μM test substance)	Virus amount ([1]; 12.5 μM test substance)	Virus amount ([1]; 25 μM test substance)	Virus amount ([1]; 50 μM test substance)	Virus amount ([2]; 0.78 μM test compound)	Virus amount ([2]; 3.1 μM test compound)	Virus amount ([2]; 12.5 μM test compound)	Virus amount ([2]; 25 μM test compound)	Virus amount ([2]; 50 μM test compound)	Virus amount ([1]; 1.6 μM test substance)	Virus amount ([2]; 1.58 μM test compound)	Virus amount ([2]; 6.3 μM test compound)	also measured
Fc1ccc(-c2nc(-c3ccc(OCc4ncc(C(F)(F)F)cc4F)cc3Cl)c(Cl)[nH]2)cn1 [Compound Z, 2-[[3-chloro-4-(5-chloro-2-(6-fluoropyridin-3-yl)-1H-imidazol-4-yl)phenoxy]methyl]-3-fluoro-5-(trifluoromethyl)pyridine]	3.E+08	1.E+08	3.E+08	3.E+08	8.E+07	2.E+05	4.E+04									
COc1cc(OCc2ncc(C(F)(F)F)cc2F)ccc1-c1nc(-c2ccc(F)nc2)[nH]c1Cl [Compound X, 2-[[4-(5-chloro-2-(6-fluoropyridin-3-yl)-1H-imidazol-4-yl)-3-methoxyphenoxy]methyl]-3-fluoro-5-(trifluoromethyl) pyridine]	9.E+06	1.E+07	5.E+06	5.E+06	1.E+06	4.E+02	3.E+03	3.E+08	6.E+08	2.E+05	1.E+05	1.E+05				Virus amount ([2]; 1.6 μM test compound): 5.E+08; Virus amount ([2]; 6.2 μM test compound): 1.E+08; Ct value (average value) ([3]; 0.78 μM test compound): 21.0; Ct value (average value) ([3]; 1.56 μM test compound): 21.1; Ct value (average value) ([3]; 3.13 μM test compound): 20.9; Ct value (average value) ([3]; 6.25 μM test compound): 21.7; Ct value (average value) ([3]; 12.50 μM test compound): 24.7; Ct value (average value) ([3]; 25.00 μM test compound): 24.8; Ct value (average value) ([3]; 50.00 μM test compound): 24.5; infection-suppressing effect on SARS-CoV-2 ([3]; in words, Vero E6): showed an infection-suppressing effect on SARS-CoV-2
NC(=O)c1nccnc1O [Comparative compound, 3-Hydroxypyrazine-2-carboxamide, reference compound]			7.E+06	9.E+06	5.E+06	2.E+07	2.E+07						1.E+07			Virus amount ([1]; 100 μM test substance): 2.E+07
CCN(CC)CCCC(C)Nc1ccnc2cc(Cl)ccc12 (stereo not drawn) [compound 2, chloroquine phosphate]								2.E+08	4.E+08	6.E+07	3.E+06	9.E+06		3.E+08	6.E+08	
COc1cc(OCc2ncc(C(F)(F)F)cc2F)ccc1-c1nc(-c2ccc(F)nc2)[nH]c1Br [Compound Y, 2-[[4-(5-bromo-2-(6-fluoropyridin-3-yl)-1H-imidazol-4-yl)-3-methoxyphenoxy]methyl]-3-fluoro-5-(trifluoromethyl)pyridine]	2.E+08		1.E+08		8.E+07	4.E+04	3.E+04						1.E+08			Virus amount ([1]; 6.2 μM test substance): 1.E+08
NC(=O)c1nc(F)c[nH]c1=O [compound 1, favipiravir]								4.E+08	3.E+08	2.E+08	2.E+08	6.E+08		3.E+08	3.E+08	
